According to paper PMC4658230 (Toxicology, 2015):
Like-named read-outs stand apart in the source and are kept apart here.

Experiments:
[1] = target: T1, erCYP2E1 (Rattus norvegicus, UniProt P05182); conditions: microsomes 0.5 mg/mL, methanol only
[2] = target: T2, mtCYP2E1 (Rattus norvegicus, UniProt P05182); conditions: mitochondria 2 mg/mL, methanol only
[3] = target: T1, erCYP2E1; test: Steady-state kinetics of substrate oxidation by rat liver microsomes; conditions: for Preferred Mechanism: rat liver microsomes, best of six steady-state mechanisms (DynaFit)
[4] = target: T2, mtCYP2E1; conditions: for Preferred Mechanism: rat liver mitochondria, best of six steady-state mechanisms (DynaFit)
[5] = target: T1, erCYP2E1; conditions: equal CYP2E1 levels in each compartment assumed
[6] = target: T2, mtCYP2E1; conditions: low concentration (10 μM); equal CYP2E1 levels in each compartment assumed
[7] = more recent studies of industrial workers; ref Bonanni et al. 2015; cited from earlier work
[8] = rat liver microsomes 0.5 mg/mL, 1 mM NADPH, 37°C, pH 7.4

T1 sequence (P05182 whole entry): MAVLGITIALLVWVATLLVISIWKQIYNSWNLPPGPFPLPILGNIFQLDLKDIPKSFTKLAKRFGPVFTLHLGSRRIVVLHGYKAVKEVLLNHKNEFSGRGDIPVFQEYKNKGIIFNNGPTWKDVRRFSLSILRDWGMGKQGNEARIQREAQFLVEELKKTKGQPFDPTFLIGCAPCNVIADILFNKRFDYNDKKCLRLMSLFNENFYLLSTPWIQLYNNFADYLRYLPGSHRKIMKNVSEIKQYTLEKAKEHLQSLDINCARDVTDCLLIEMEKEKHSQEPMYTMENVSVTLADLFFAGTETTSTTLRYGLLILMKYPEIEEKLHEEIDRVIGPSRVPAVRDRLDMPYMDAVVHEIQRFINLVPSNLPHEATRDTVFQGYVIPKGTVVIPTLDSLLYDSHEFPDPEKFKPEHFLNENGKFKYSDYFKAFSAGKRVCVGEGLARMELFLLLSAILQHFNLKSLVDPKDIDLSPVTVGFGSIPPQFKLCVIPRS
T2 sequence (P05182 2-493 limits assumed): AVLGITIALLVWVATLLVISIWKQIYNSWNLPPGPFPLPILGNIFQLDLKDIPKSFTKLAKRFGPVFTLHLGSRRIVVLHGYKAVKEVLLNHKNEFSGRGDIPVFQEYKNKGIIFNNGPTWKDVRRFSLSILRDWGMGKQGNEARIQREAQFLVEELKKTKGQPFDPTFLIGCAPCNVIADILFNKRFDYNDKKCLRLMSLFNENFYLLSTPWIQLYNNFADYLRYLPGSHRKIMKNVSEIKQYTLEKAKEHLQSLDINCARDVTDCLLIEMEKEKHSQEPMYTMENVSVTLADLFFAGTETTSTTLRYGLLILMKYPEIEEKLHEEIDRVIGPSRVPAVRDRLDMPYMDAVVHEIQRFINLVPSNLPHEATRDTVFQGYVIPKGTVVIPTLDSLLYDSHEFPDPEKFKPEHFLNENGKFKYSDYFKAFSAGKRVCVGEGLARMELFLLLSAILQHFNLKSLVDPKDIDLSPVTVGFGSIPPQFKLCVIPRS

Row | kcat ([4]; rat liver mitochondria 2 mg/mL, 1 mM NADPH, 37°C, pH 7.4) | SMILES | control (uninhibited) rate of substrate oxidation by erCYP2E1 ([1]; 50 μM substrate) | control (uninhibited) rate of substrate oxidation by erCYP2E1 ([1]; 500 μM substrate) | control (uninhibited) rate of substrate oxidation by mtCYP2E1 ([2]; 50 μM substrate) | control (uninhibited) rate of substrate oxidation by mtCYP2E1 ([2]; 500 μM substrate) | Kss [3, 8] | Preferred Mechanism [3] | turnover rate of mtCYP2E1 lower than erCYP2E1 ([4]; mtCYP2E1 versus erCYP2E1) | Preferred Mechanism [4] | percent of total metabolism through erCYP2E1 ([5]; high concentration (500 μM)) | percent of total metabolism through erCYP2E1 ([5]; low concentration (10 μM)) | percent of total metabolism through mtCYP2E1 [6] | binding of second molecule weaker than first binding event ([3]; erCYP2E1, rat liver microsomes) | rate of turnover of ternary complex higher than binary enzyme-substrate complex ([3]; erCYP2E1, rat liver microsomes) | kcat [3, 8] | kcat2 [3, 8] | turnover rate of mtCYP2E1 lower than microsomal enzyme ([4]; versus erCYP2E1 after first substrate binding event) | styrene plasma levels [7]
1 |  | O=[N+]([O-])c1ccc(O)cc1 [4-nitrophenol, reference compound] | 290 pmol/min/pmol CYP2E1 | 1080 pmol/min/pmol CYP2E1 | 26 pmol/min/pmol CYP2E1 | 60 pmol/min/pmol CYP2E1 | 2000 (1600 to 2600) μM | Two-Site Model, ES active only | nine-fold | One-Site Model (Michaelis-Menten) |  |  |  |  |  |  |  |  | 
2 |  | Nc1ccccc1 [aniline] | 260 pmol/min/mg | 1000 pmol/min/mg | 28 pmol/min/pmol CYP2E1 | 58 pmol/min/pmol CYP2E1 | 54 (21 to 550) μM | Two-Site Model, ES and ESS active |  | One-Site Model (Michaelis-Menten) | 95% | approximately 94% | about 6% | 25 fold | two-fold | 500 (230 to 770) pmol/min/pmol CYP2E1 | 1000 (970 to 1300) pmol/min/pmol CYP2E1 | 10 fold | 
3 | 100 (96 to 110) pmol/min/pmol CYP2E1 | C=Cc1ccccc1 [styrene] | 310 pmol/min/mg | 390 pmol/min/mg | 54 pmol/min/pmol CYP2E1 | 76 pmol/min/pmol CYP2E1 |  |  |  |  |  |  |  |  |  | 630 (580 to 690) pmol/min/pmol CYP2E1 |  |  | 0.06 µM
